Data on ten compounds can be found in patent US20260174739A1 (priority 2022, published 2026).

Structures can show the parent of a compound that is named as a salt. Where two headings read alike, the source gives them in different places.

The test system of one series is male C57 mice. Nature of the series: Forced swim test. It is filed as in vivo. The following applies: intraperitoneal injection, test 0.5 h after dosing, motionless time in last 4 min. How it is done:
Drug: the compound of the present disclosure was first uniformly mixed with 5% DMSO and 5% Solutol® HS 15. hysiological saline was then added to make up 90% of the final volume. The mixture was prepared at an appropriate concentration immediately before use.
Animal: male C57 mice, about 22 g. The animals were randomly divided into a blank control group and test drug groups, 8 animals per group, and mice in each group were administered either the vehicle or the test compound via intraperitoneal injection.
Experimental steps: the mice were subjected to forced swim test 0.5 h after dosing. The water level in the forced swim device was 45 cm, and the water temperature was 25° C. The mice were placed in an experimental room to adapt to the environment for 1 h before the experiment began. When the experiment began, the mice were placed in the device for 6 min, and the whole process was recorded by a camera. Only the motionless time of the mice in the last 4 min was counted when data were analyzed.

Series [1] can be described thus: Human liver microsome assay (metabolic stability). Format: in vitro ADME. The following applies: pH 7.4, human liver microsomes 0.2 mg/mL, 1 μM test drug, NADPH, 37° C.; for half-life at 1 μM: read-out: Half-life (t1/2, min); for CLint scaled at 1 μM: read-out: Intrinsic clearance (Clint, mL/min/kg). The protocol: Control and reagent: NADPH, magnesium chloride, testosterone, phosphate buffer, etc. were supplied by Dalian Meilun Biotech Co., Ltd., etc.
Liver microsome: human liver microsomes were supplied by Corning.
Experimental step: the liver microsome incubations were performed in 96-well plates, each incubation system having a volume of 200 μL, in a medium of 0.1 M phosphate buffer (pH 7.4), including liver microsomes at a final concentration of 0.2 mg/mL, 1 μM of the test drug, 3.0 mM MgCl2, 0.01% DMSO, 0.5% acetonitrile, and 2.0 mM NADPH. The incubation system described above without NADPH was pre-incubated at 37° C. for 5 min using a rotary water bath constant temperature oscillator. NADPH was added to initiate the reaction. At 0, 5, 15, 30, and 60 min, 20 μL of the sample was taken out from the incubation system after mixing well and added to 200 μL of acetonitrile containing an internal standard to terminate the reaction. Under the same conditions, 1 μM testosterone was used as a positive control to assess the reliability of the reaction system. For the negative control, phosphate buffer was used instead of NADPH, and all other incubation conditions remained the same. At 60 min, 20 μL of the sample was taken out after mixing well and added to 200 μL of termination solution containing an internal standard to terminate the reaction.
Sample analysis: After treatments such as precipitated protein extraction with an organic solvent, the incubated sample was analyzed using liquid chromatography-tandem mass spectrometry (LC-MS/MS). The concentrations of the test drug or the positive control drug in the sample were semi-quantified. The concentration in the sample was expressed using the ratio of the analyte peak area to the internal standard peak area.
Data processing and analysis: A standard curve of the In residual rate of the drug in the incubation system with respect to the incubation time was plotted by using Excel software, linear regression was performed to obtain a slope k, and the half-life T1/2 (min) and the intrinsic clearance CLint (mL/min/kg) were calculated according to the following formula: […]

Series [2] is described as follows: In vivo metabolism (pharmacokinetic) experiment in mice. Particulars: mouse, male ICR mice; for bioavailability: oral 10 mg/kg vs iv 2.5 mg/kg, read-out: F (%); for AUC(0-inf) / Cmax / half-life: oral 10 mg/kg, plasma; for AUC(0-inf): read-out: AUC0-inf(po); for Cmax: read-out: Cmax (po); for half-life: read-out: T1/2 (po) (converted). More on the design: species or system male ICR mice. The protocol:
Animal: male ICR mice. The animals were randomly assigned to treatment groups and fasted for 12 h prior to dosing.
Drug: the compound of the present disclosure was dissolved in a vehicle (5% DMSO+5% Solutol HS15+90% saline). For intravenous (iv) administration, the dose was 2.5 mg/kg with a dosing volume of 5 mL/kg; for oral (po) administration, the dose was 10 mg/kg with a dosing volume of 10 mL/kg body weight. Sample collection and bioanalysis: blood was collected from the orbit of the mice and added into EP tubes containing heparin sodium at 0.083, 0.25, 0.5, 1, 2, 4, 6, and 8 h (n=3 for each time point). Immediately after blood collection, the mice were euthanized by cervical dislocation, and mouse brains were collected at the corresponding time points. All samples were promptly collected, snap-frozen, and stored at −70° C. for later use. Plasma samples were obtained by centrifugation of whole blood. 10 μL of plasma was mixed with 190 μL of internal standard solution (20 ng/ml in acetonitrile containing 0.1% formic acid). After mixing, the samples were centrifuged at 13000 rpm for 10 min, and 120 μL of the supernatant was separately collected. Depending on the sensitivity of the compound, 0.5-10 μL of the supernatant was taken for drug analysis using the appropriate liquid chromatography-tandem mass spectrometry (LC-MS/MS). Each analyte was calibrated and identified using standards. According to brain tissue: the extract (50% acetonitrile/water) at a ratio of 1 g:8 mL was homogenized for 2 min using five 3 mm magnetic beads in an OMNI Bead Ruptor 24 Elite homogenizer at 3.2 m/s and centrifuged at 4° C. and 3000 g for 3 min. 50 μL of the supernatant was mixed with 200 μL of internal standard solution (20 ng/mL in 80% acetonitrile/water). After mixing, the samples were centrifuged at 13,000 rpm for 10 min, and 120 μL of the supernatant was separately collected. Depending on the sensitivity of the compound, 0.5-10 μL of the supernatant was taken for drug analysis using the appropriate LC-MS/MS method. Each analyte was calibrated and identified using standards.
Data analysis: drug concentrations below the lower limit of quantification (LLOQ) were considered zero. Pharmacokinetic parameters were analyzed using PK Solver with a non-compartmental, bolus injection or extravascular input analysis models. Data points below the LLOQ were excluded to improve the efficacy of t1/2 calculation.

For a further series, the target named is human DAT (Homo sapiens, UniProt Q01959). Nature of the series: DAT transporter inhibitory activity test (neurotransmitter transporter uptake assay kit). Format: cell-based. How it is done: (§1) Transporter inhibition of human DAT and NET expressed in HEK-293 cells was assessed using a neurotransmitter transporter uptake assay kit. The assay was performed as described in the kit instructions, using centanafadine as a positive control. The specific procedures were as follows:
DAT stably transfected culture: The DAT-HEK cell line was cultured in DMEM medium containing 10% fetal bovine serum and 0.2 mg/mL hygromycin B at 37° C. with 5% carbon dioxide.
DAT stably transfected cell passage: the old medium was removed, and the cells were washed once with PBS; 1 mL of TrypLE™ Express solution was then added, and the cells were incubated at 37° C. for about 2 min. When the cells were detached from the bottom of the dish, about 5 mL of complete medium pre-heated at 37° C. was added. The cell suspension was gently pipetted to separate the aggregated cells. The cell suspension was transferred to a sterile centrifuge tube and centrifuged at 1000 rpm for 5 min. In order to maintain the physiological activity of the cells, the experimental cell confluence was controlled at about 80%.
• a) After overnight transfection of NET cells, the cells were digested with trypsin, resuspended with DMEM+10% Dialyzed FBS medium, seeded into a 384-well plate at 20000 cells/well, and incubated overnight. […] After centrifuging, the plate was incubated at 37° C. for 30 min. • e) A detection reagent was prepared using 1×HBSS, and 16 μL of the detection reagent was added to each well. […] Curve fitting and IC50 calculation were performed using GraphPad Prism software nonlinear regression method.

Another series concerns the target human NET (Homo sapiens, UniProt P23975). Nature of the series: NET transporter inhibitory activity test (neurotransmitter transporter uptake assay kit). Format: cell-based. The protocol: as §1
First day cell plating: HEK 293T cells were digested with trypsin, centrifuged, resuspended with a medium, counted, and seeded into a 6 cm culture dish at a density of 3×10^6 cells/well.
Second day cell transfection: HEK 293T cells were subjected to medium exchange, and then A, B tubes were prepared for NET-pcDNA5/FRT plasmid to be transfected. 200 μL of Opti-MEM was added to tube A, and 10 μL of Lipofectamine™ 3000 was added. The mixture was mixed well. 200 μL of Opti-MEM was added to tube B, and 5 μg of NET-pcDNA5/FRT plasmid was added. The mixture was mixed well, and then 10 μL of P3000™ was added to tube B. The mixture was mixed well (plasmid to transfection reagent ratio 1 μg:2 μL). The diluted solution of tube A was added to the diluted solution of tube B. The mixture was mixed well, and incubated at room temperature for 15 min. Finally, the mixture was gently added to the cells that had been subjected to medium exchange, gently shaken to mix, and then incubated overnight in an incubator at 37° C. with a carbon dioxide concentration of 5%. The cells were used for compound functional activity assays 18-20 h after transfection.
• a) After overnight transfection of NET cells, the cells were digested with trypsin, resuspended with DMEM+10% Dialyzed FBS medium, seeded into a 384-well plate at 20000 cells/well, and incubated overnight. Stably transfected DAT cells were digested with trypsin, resuspended with DMEM+10% Dialyzed FBS medium, seeded into a 384-well plate at 2500 cells/well, and incubated overnight. • b) 1× Assay buffer was prepared according to the kit instruction for later use; the positive compound and the test compound were serially diluted with DMSO, and then diluted to 2× with 1× assay buffer. • c) The medium was removed from the 384-well plate by centrifugation. • d) 16 μL of the compound prepared in step b) was added to corresponding experimental wells, wherein an initial concentration of 2× positive control compound was added to the positive control well, and 0.2% DMSO buffer was added to the negative control well. After centrifuging, the plate was incubated at 37° C. for 30 min. • e) A detection reagent was prepared using 1×HBSS, and 16 μL of the detection reagent was added to each well. After centrifuging, the plate was incubated at 37° C. for 60 min. • f) After incubation, the reading at 510 nm under the excitation of the detection wavelength of 425 nm was measured using a microplate reader. Curve fitting and IC50 calculation were performed using GraphPad Prism software nonlinear regression method.

The target in a further series is human SERT (Homo sapiens, UniProt P31645). Nature of the series: Inhibitory activity assay against 5-HT transporter (neurotransmitter transporter uptake assay kit). It is filed as cell-based. The following applies: HEK-293 cells overexpressing human SERT; read-out: 5-HTT (IC50). The protocol: In HEK-293 cells overexpressing human SERT, the transporter inhibitory effect of the test compound on human SERT was assayed using a Neurotransmitter transporter uptake assay kit (Molecular devices).

The mark [3] stands for this setting: NET transiently transfected HEK 293T cells, read-out: NET (IC50).

Sequence of human NET (P23975 whole entry): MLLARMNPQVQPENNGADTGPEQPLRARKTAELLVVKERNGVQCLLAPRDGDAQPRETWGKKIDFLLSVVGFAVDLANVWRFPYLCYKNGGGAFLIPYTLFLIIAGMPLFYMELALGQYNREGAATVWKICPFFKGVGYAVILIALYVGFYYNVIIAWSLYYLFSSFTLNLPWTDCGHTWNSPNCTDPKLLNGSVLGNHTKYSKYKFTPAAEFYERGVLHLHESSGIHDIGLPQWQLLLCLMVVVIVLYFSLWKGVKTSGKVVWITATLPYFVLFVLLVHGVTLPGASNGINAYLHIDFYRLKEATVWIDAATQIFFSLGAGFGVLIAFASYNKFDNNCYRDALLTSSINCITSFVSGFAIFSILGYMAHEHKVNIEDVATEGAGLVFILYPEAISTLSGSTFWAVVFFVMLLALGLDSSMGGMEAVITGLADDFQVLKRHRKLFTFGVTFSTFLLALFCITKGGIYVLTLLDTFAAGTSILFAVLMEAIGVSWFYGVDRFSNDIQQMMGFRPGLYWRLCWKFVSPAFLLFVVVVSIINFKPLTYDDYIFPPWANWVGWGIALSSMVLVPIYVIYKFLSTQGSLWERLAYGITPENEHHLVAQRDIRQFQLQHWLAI
Sequence of human DAT (Q01959 whole entry): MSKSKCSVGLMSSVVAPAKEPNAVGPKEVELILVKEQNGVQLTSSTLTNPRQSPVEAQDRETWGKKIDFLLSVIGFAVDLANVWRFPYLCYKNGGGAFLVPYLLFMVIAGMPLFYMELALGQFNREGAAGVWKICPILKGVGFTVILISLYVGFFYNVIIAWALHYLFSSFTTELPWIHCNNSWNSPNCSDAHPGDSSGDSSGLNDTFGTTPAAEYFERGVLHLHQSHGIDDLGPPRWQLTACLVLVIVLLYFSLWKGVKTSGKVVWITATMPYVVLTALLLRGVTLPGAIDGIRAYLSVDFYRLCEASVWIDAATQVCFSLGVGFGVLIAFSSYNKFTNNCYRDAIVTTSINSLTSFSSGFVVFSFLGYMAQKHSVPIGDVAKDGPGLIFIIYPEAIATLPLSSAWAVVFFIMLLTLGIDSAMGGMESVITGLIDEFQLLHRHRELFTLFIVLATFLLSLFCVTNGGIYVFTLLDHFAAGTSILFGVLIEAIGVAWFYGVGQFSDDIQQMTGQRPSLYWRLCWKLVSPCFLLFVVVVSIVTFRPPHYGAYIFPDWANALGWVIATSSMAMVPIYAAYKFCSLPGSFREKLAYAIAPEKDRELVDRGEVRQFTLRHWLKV
Sequence of human SERT (P31645 whole entry): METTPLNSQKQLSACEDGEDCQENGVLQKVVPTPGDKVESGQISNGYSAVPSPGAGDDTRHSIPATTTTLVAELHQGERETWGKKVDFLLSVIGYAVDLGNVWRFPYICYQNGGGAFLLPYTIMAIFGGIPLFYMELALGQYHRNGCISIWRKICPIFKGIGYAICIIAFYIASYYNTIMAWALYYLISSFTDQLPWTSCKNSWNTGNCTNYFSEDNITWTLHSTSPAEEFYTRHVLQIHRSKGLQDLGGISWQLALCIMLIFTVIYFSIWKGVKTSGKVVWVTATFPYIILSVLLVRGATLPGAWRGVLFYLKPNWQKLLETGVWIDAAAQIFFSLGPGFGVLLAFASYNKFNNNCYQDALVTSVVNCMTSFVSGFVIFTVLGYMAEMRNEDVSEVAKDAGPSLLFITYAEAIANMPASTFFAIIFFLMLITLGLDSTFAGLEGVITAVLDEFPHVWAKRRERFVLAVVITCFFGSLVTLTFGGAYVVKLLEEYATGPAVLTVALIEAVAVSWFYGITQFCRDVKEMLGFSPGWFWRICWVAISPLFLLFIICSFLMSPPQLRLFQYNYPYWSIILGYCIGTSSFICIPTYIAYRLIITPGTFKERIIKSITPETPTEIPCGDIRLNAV

For the compound `CNC1(c2ccccc2)CCCc2sc(N)nc21` (racemic) [rac-A38, N^4-methyl-4-phenyl-4,5,6,7-tetrahydrobenzothiazole-2,4-diamine], in the series with male C57 mice, the “Effective dose” value was determined as 3 mg/kg. Also, in series [1], the half-life at 1 μM worked out at 98 min and the CLint scaled at 1 μM stood at 41.3 mL/min/kg. Further, in series [2] (male, ICR, po, 10 mg/kg), the bioavailability amounted to 71%, the AUC(0-inf) was determined as 1620 ng·h/mL, the Cmax (usually the maximum level reached in the sampled fluid or tissue) came out at 360 ng/mL and the half-life was 1.8 h.
Take `c1ccc([C@@]2(N3CCCC3)CCc3[nH]ncc3C2)cc1` [R-A12]: the IC50 (in general, the concentration at which inhibition is half-maximal) at human DAT (DAT stably transfected HEK cells, read-out: DAT (IC50)) is 2 µM; on human NET (setting [3]), 3.8 µM.
In the case of `NC1(c2ccccc2)CCc2[nH]ncc2C1` (racemic) [rac-A65, 5-phenyl-4,5,6,7-tetrahydro-1H-indazol-5-amine], the 50% inhibitory concentration (IC50) against human NET worked out at 7 µM; on human SERT, 1.9 µM.
`CNC1(c2ccc(C(F)(F)F)cc2)CCc2nc(N)sc2C1` (racemic) [rac-A96, 6-(4-trifluoromethylphenyl)-N^6-methyl-4,5,6,7-tetrahydrobenzothiazole-2,6-diamine hydrobromide] showed a half-inhibitory concentration (IC50) at human NET of 14 µM.
`Nc1nc2c(s1)C[C@](c1ccccc1)(N1CCCC1)CC2` [R-A50]: the IC50 on human NET (setting [3]) is 0.2 µM.
Turning to `NC1(c2ccccc2)CCc2ncsc2C1` (racemic) [rac-A14, 6-phenyl-4,5,6,7-tetrahydrobenzothiazol-6-amine], the “Effective dose” value in the series on male C57 mice is recorded as 3 mg/kg. In addition, in series [1], the half-life at 1 μM is over 120 min. In series [2] (male, ICR, po, 10 mg/kg), the bioavailability amounted to 105%, the AUC(0-inf) amounted to 2900 ng·h/mL, the Cmax was determined as 1430 ng/mL and the half-life is 1.5 h.
At human NET, `Nc1nc2c(s1)CC(NCC1CC1)(c1ccccc1)CC2` (racemic) [rac-A67, 6-phenyl-N^6-(cyclopropylmethyl)-4,5,6,7-tetrahydrobenzothiazole-2,6-diamine] came in with an IC50 of 3 µM.
For the compound `c1ccc(C2(N3CCCCC3)CCc3[nH]ncc3C2)cc1` (racemic) [rac-A70, 5-phenyl-5-(piperidin-1-yl)-4,5,6,7-tetrahydro-1H-indazole], the “Effective dose” value with male C57 mice amounted to 1 mg/kg. Besides, the half-life at 1 μM in series [1] was over 120 min.
Turning to `NC1(c2ccccc2)CCCc2sccc21` (racemic) [rac-A16, 4-phenyl-4,5,6,7-tetrahydrobenzothiophen-4-amine], in the series on male C57 mice, the “Effective dose” value is listed as 3 mg/kg. Further, in series [1], the half-life at 1 μM was 42 min and the CLint scaled at 1 μM was 95.5 mL/min/kg. For the same compound, in series [2], the bioavailability was determined as 41%, the AUC(0-inf) was determined as 501 ng·h/mL, the Cmax was found to be 252 ng/mL and the half-life is 1.76 h.
In the case of `c1ccc2cc([C@]34CNC[C@H]3C4)ccc2c1` [Centanafadine, centanafadine, reference compound], the results for the concentration for half-maximal inhibition (IC50) against human DAT and on human NET were 0.08 µM and 0.03 µM, respectively.
